IC50 data for 12 molecules are collected here from patent US6251882A, “Alkyl ketones as potent anti-cancer agents” (Parker Hughes Institute, priority 1999, dated 2001).

In general, pIC50 refers to the negative decadic logarithm of the IC50, by convention in mol/L. Low values mean a high IC50, high ones a low IC50.

pIC50: −log10 of the molar value.

In one assay the test system is U-373 (glioblastoma). As to the kind of experiment: MTT cytotoxicity assay, U-373. In kind it is cell-based. Particulars: Homo sapiens, U373 MG, 24-36 hours at 37° C., 0.1 to 250 μM. How it is done: (§1) Cytotoxicity of various compounds against tumor cells was performed using the MTT (3-[4,5-[…]]-2,5-diphenyl tetrazolium bromide) assay (Boehringer Mannheim Corp., Indianapolis, Ind.). Unless otherwise specified, all cell lines were obtained from the American Type Culture Collection (ATCC). Briefly, exponentially growing cells were seeded into a 96-well plate at a density of 2.5×10^4 cells/well and incubated for 36 hours at 37° C. prior to drug exposure. On the day of treatment, culture medium was carefully aspirated from the wells and replaced with fresh medium containing the indicated compound at concentrations ranging from 0.1 to 250 μM. Triplicate wells were used for each treatment.
(§2) Human leukemic cell lines (NALM-6, MOLT-3) glioblastoma cells (U373) and human breast tumor cell lines (BT20 and MDA-MB-231) were obtained from the American Type Culture Collection and maintained as a continuous cell line in Dulbecco's modified Eagles's medium supplemented with 10% fetal bovine serum and antibiotics.
(§3) The cells were incubated with the various compounds for 24-36 hours at 37° C. in a humidified 5% CO2 atmosphere. To each well, 10 μl of MTT (0.5 mg/ml final concentration) was added and the plates were incubated at 37° C. for 4 hours to allow MTT to form formazan crystals by reacting with metabolically active cells. The formazan crystals were solubilized overnight at 37° C. in a solution containing 10% SDS in 0.01 M HCl. The absorbence of each well was measured in a microplate reader (Labsystems) at 540 nm and a reference wavelength of […]. To translate the OD540 values into the number of live cells in each well, the OD540 values were compared to those on standard OD540 --versus--cell number curves generated for each cell line. The percent survival was calculated using the formula: [formula]
(§4) The IC50 values were calculated by non-linear regression analysis and are shown below in Tables 1-6.
In general terms: Tetrazolium assays rely on reduction of a dye to a coloured formazan, in cell work by metabolically active cells.
In turn, `CC(C)=CCC/C(C)=C/CC/C(C)=C/CSC[C@H](NC(=O)OC(C)(C)C)C(=O)C=[N+]=[N-]` [HI-82, N-Boc-S-farnesyl-Cys diazomethyl ketone] had a pIC50 below 4.00.
The molecule `CC(C)=CCC/C(C)=C/CC/C(C)=C/CSCCC(=O)C=[N+]=[N-]` [HI-83, S-trans-trans-Farnesyl-mercaptoethyl diazomethyl ketone] had a negative-log IC50 (pIC50) below 4.00.
For the molecule `CC(C)=CCC/C(C)=C/CC/C(C)=C/CSCC(=O)C=[N+]=[N-]` [HI-84, S-trans-trans-Farnesyl-mercaptomethyl diazomethyl ketone], the pIC50 is below 4.00.
For `CC(=O)N[C@@H](CSC/C=C(\C)CCC=C(C)C)C(=O)C=[N+]=[N-]` [HI-122, N-Ac-S-trans-geranyl-Cys diazomethyl ketone], the pIC50 is below 4.00.
On to `CC(=O)N[C@@H](CSCC=C(C)C)C(=O)C=[N+]=[N-]` [HI-123, N-Ac-S-(3-methyl-2-butenyl)-Cys diazomethyl ketone], for which the pIC50 is below 4.00.
On to `CC(C)=CCC/C(C)=C/CC/C(C)=C/CSC[C@H](NC(=O)OC(C)(C)C)C(=O)CCl` [HI-124, N-Boc-S-farnesyl-Cys chloromethyl ketone], for which the pIC50 is below 4.00.
Same read-out and setting: the same measure for `CC(C)=CCC/C(C)=C/CC/C(C)=C/CSCCC(=O)CCl` [HI-125, S-trans-trans-Farnesyl-2-mercaptoethyl chloromethyl ketone]: below 4.00.
Regarding `CC(C)=CCC/C(C)=C/CC/C(C)=C/CSCC(=O)CCl` [HI-126, S-trans-trans-Farnesyl-mercaptomethyl chloromethyl ketone], the negative logarithm of the IC50 (pIC50) was below 4.00.
The molecule `CCCCCCCCCCCCOC[C@H](NC(=O)OC(C)(C)C)C(=O)CCl` [HI-266, N-Boc-O-dodecyl serine chloromethyl ketone] gave a negative-log IC50 (pIC50) of 4.43.
The same measure, in the same setting: the figure for `CCCCCCCCCCCCSC[C@H](NC(C)=O)C(=O)N(C)OC` [HI-267, N-Ac-S-dodecyl-Cys-N(OCH3)-CH3] is below 4.00.
Still for that read-out and setting: the figure for `CCCCCCCCCCCCSC[C@H](NC(=O)c1cccc(N(C)C)c1)C(=O)CCl` [HI-268, N-3-Dimethylaminobenzoyl-S-dodecyl-cysteine chloromethyl ketone] is below 4.00; for `CCCCCCCCCCCCSC[C@@H](C=O)NC(C)=O` [HI-274, N-Ac-S-dodecyl-Cys-H] it is below 4.00.

In the next assay the test system is PC-3 (prostate cancer). As to the kind of experiment: MTT cytotoxicity assay, PC-3. In kind it is cell-based. Particulars: 24-36 hours at 37° C., 0.1 to 250 μM. How it is done:
as §1, §3, §4
For `CC(C)=CCC/C(C)=C/CC/C(C)=C/CSC[C@H](NC(=O)OC(C)(C)C)C(=O)C=[N+]=[N-]` [HI-82, N-Boc-S-farnesyl-Cys diazomethyl ketone], the pIC50 is below 4.00.
Still for that read-out and setting: the same measure for `CC(C)=CCC/C(C)=C/CC/C(C)=C/CSCCC(=O)C=[N+]=[N-]` [HI-83, S-trans-trans-Farnesyl-mercaptoethyl diazomethyl ketone]: below 4.00; for `CC(C)=CCC/C(C)=C/CC/C(C)=C/CSCC(=O)C=[N+]=[N-]` [HI-84, S-trans-trans-Farnesyl-mercaptomethyl diazomethyl ketone]: below 4.00.
Still for that read-out and setting: the figure for `CC(=O)N[C@@H](CSC/C=C(\C)CCC=C(C)C)C(=O)C=[N+]=[N-]` [HI-122, N-Ac-S-trans-geranyl-Cys diazomethyl ketone] is below 4.00; for `CC(=O)N[C@@H](CSCC=C(C)C)C(=O)C=[N+]=[N-]` [HI-123, N-Ac-S-(3-methyl-2-butenyl)-Cys diazomethyl ketone] it is below 4.00; for `CC(C)=CCC/C(C)=C/CC/C(C)=C/CSC[C@H](NC(=O)OC(C)(C)C)C(=O)CCl` [HI-124, N-Boc-S-farnesyl-Cys chloromethyl ketone] it is below 4.00.
In turn, `CC(C)=CCC/C(C)=C/CC/C(C)=C/CSCCC(=O)CCl` [HI-125, S-trans-trans-Farnesyl-2-mercaptoethyl chloromethyl ketone] had a pIC50 below 4.00.
On the same count and under the same terms, the same measure for `CC(C)=CCC/C(C)=C/CC/C(C)=C/CSCC(=O)CCl` [HI-126, S-trans-trans-Farnesyl-mercaptomethyl chloromethyl ketone]: below 4.00; for `CCCCCCCCCCCCSC[C@H](NC(C)=O)C(=O)N(C)OC` [HI-267, N-Ac-S-dodecyl-Cys-N(OCH3)-CH3]: below 4.00; for `CCCCCCCCCCCCSC[C@H](NC(=O)c1cccc(N(C)C)c1)C(=O)CCl` [HI-268, N-3-Dimethylaminobenzoyl-S-dodecyl-cysteine chloromethyl ketone]: below 4.00.

In the next assay the test system is Nalm-6 (B-lineage ALL). As to the kind of experiment: MTT cytotoxicity assay, Nalm-6. The format is cell-based. To be noted: Homo sapiens, 24-36 hours at 37° C., 0.1 to 250 μM. The protocol: as §1, §2, §3, §4
Molecule `CC(C)=CCC/C(C)=C/CC/C(C)=C/CSC[C@H](NC(=O)OC(C)(C)C)C(=O)C=[N+]=[N-]` [HI-82, N-Boc-S-farnesyl-Cys diazomethyl ketone] gave a pIC50 of 4.30.
On the same count and under the same terms, the same measure for `CC(C)=CCC/C(C)=C/CC/C(C)=C/CSCCC(=O)C=[N+]=[N-]` [HI-83, S-trans-trans-Farnesyl-mercaptoethyl diazomethyl ketone]: 4.27; for `CC(C)=CCC/C(C)=C/CC/C(C)=C/CSCC(=O)C=[N+]=[N-]` [HI-84, S-trans-trans-Farnesyl-mercaptomethyl diazomethyl ketone]: below 4.00; for `CC(=O)N[C@@H](CSC/C=C(\C)CCC=C(C)C)C(=O)C=[N+]=[N-]` [HI-122, N-Ac-S-trans-geranyl-Cys diazomethyl ketone]: below 4.00.
On the same count and under the same terms, the same measure for `CC(=O)N[C@@H](CSCC=C(C)C)C(=O)C=[N+]=[N-]` [HI-123, N-Ac-S-(3-methyl-2-butenyl)-Cys diazomethyl ketone]: below 4.00; for `CC(C)=CCC/C(C)=C/CC/C(C)=C/CSC[C@H](NC(=O)OC(C)(C)C)C(=O)CCl` [HI-124, N-Boc-S-farnesyl-Cys chloromethyl ketone]: 4.97.
On the same count and under the same terms, the same measure for `CC(C)=CCC/C(C)=C/CC/C(C)=C/CSCCC(=O)CCl` [HI-125, S-trans-trans-Farnesyl-2-mercaptoethyl chloromethyl ketone]: 4.39; for `CC(C)=CCC/C(C)=C/CC/C(C)=C/CSCC(=O)CCl` [HI-126, S-trans-trans-Farnesyl-mercaptomethyl chloromethyl ketone]: 4.07.
Molecule `CCCCCCCCCCCCOC[C@H](NC(=O)OC(C)(C)C)C(=O)CCl` [HI-266, N-Boc-O-dodecyl serine chloromethyl ketone] gave a pIC50 of 4.19.
The same measure, in the same setting: the figure for `CCCCCCCCCCCCSC[C@H](NC(C)=O)C(=O)N(C)OC` [HI-267, N-Ac-S-dodecyl-Cys-N(OCH3)-CH3] is 4.30.
On the same count and under the same terms, the figure for `CCCCCCCCCCCCSC[C@H](NC(=O)c1cccc(N(C)C)c1)C(=O)CCl` [HI-268, N-3-Dimethylaminobenzoyl-S-dodecyl-cysteine chloromethyl ketone] is 4.02.
On the same count and under the same terms, the figure for `CCCCCCCCCCCCSC[C@@H](C=O)NC(C)=O` [HI-274, N-Ac-S-dodecyl-Cys-H] is 4.90.

The subject of the next assay is BT-20 (breast cancer). As to the kind of experiment: MTT cytotoxicity assay, BT-20. To be noted: Homo sapiens, 24-36 hours at 37° C., 0.1 to 250 μM. In kind it is cell-based. The protocol: as §1, §2, §3, §4
For the molecule `CC(C)=CCC/C(C)=C/CC/C(C)=C/CSC[C@H](NC(=O)OC(C)(C)C)C(=O)C=[N+]=[N-]` [HI-82, N-Boc-S-farnesyl-Cys diazomethyl ketone], the pIC50 was below 4.00.
Same read-out and setting: the figure for `CC(C)=CCC/C(C)=C/CC/C(C)=C/CSCCC(=O)C=[N+]=[N-]` [HI-83, S-trans-trans-Farnesyl-mercaptoethyl diazomethyl ketone] is below 4.00.
`CC(C)=CCC/C(C)=C/CC/C(C)=C/CSCC(=O)C=[N+]=[N-]` [HI-84, S-trans-trans-Farnesyl-mercaptomethyl diazomethyl ketone] showed a pIC50 below 4.00.
The same measure, in the same setting: the same measure for `CC(=O)N[C@@H](CSC/C=C(\C)CCC=C(C)C)C(=O)C=[N+]=[N-]` [HI-122, N-Ac-S-trans-geranyl-Cys diazomethyl ketone]: below 4.00; for `CC(=O)N[C@@H](CSCC=C(C)C)C(=O)C=[N+]=[N-]` [HI-123, N-Ac-S-(3-methyl-2-butenyl)-Cys diazomethyl ketone]: below 4.00; for `CC(C)=CCC/C(C)=C/CC/C(C)=C/CSC[C@H](NC(=O)OC(C)(C)C)C(=O)CCl` [HI-124, N-Boc-S-farnesyl-Cys chloromethyl ketone]: below 4.00.
The same measure, in the same setting: the figure for `CC(C)=CCC/C(C)=C/CC/C(C)=C/CSCCC(=O)CCl` [HI-125, S-trans-trans-Farnesyl-2-mercaptoethyl chloromethyl ketone] is below 4.00; for `CC(C)=CCC/C(C)=C/CC/C(C)=C/CSCC(=O)CCl` [HI-126, S-trans-trans-Farnesyl-mercaptomethyl chloromethyl ketone] it is below 4.00.
Still for that read-out and setting: the figure for `CCCCCCCCCCCCOC[C@H](NC(=O)OC(C)(C)C)C(=O)CCl` [HI-266, N-Boc-O-dodecyl serine chloromethyl ketone] is 4.30; for `CCCCCCCCCCCCSC[C@H](NC(C)=O)C(=O)N(C)OC` [HI-267, N-Ac-S-dodecyl-Cys-N(OCH3)-CH3] it is below 4.00; for `CCCCCCCCCCCCSC[C@H](NC(=O)c1cccc(N(C)C)c1)C(=O)CCl` [HI-268, N-3-Dimethylaminobenzoyl-S-dodecyl-cysteine chloromethyl ketone] it is below 4.00.
`CCCCCCCCCCCCSC[C@@H](C=O)NC(C)=O` [HI-274, N-Ac-S-dodecyl-Cys-H]: the pIC50 was 4.64.

The subject of another assay is Molt-3 (T-lineage ALL). As to the kind of experiment: MTT cytotoxicity assay, Molt-3. Particulars: Homo sapiens, MOLT-3, MTT, 24-36 hours at 37° C., 0.1 to 250 μM. The format is cell-based, human. How it is done:
as §1, §2, §3, §4
`CC(C)=CCC/C(C)=C/CC/C(C)=C/CSC[C@H](NC(=O)OC(C)(C)C)C(=O)C=[N+]=[N-]` [HI-82, N-Boc-S-farnesyl-Cys diazomethyl ketone] gave a pIC50 of 4.30.
Molecule `CC(C)=CCC/C(C)=C/CC/C(C)=C/CSCCC(=O)C=[N+]=[N-]` [HI-83, S-trans-trans-Farnesyl-mercaptoethyl diazomethyl ketone] had a pIC50 of 5.17.
On the same count and under the same terms, the figure for `CC(C)=CCC/C(C)=C/CC/C(C)=C/CSCC(=O)C=[N+]=[N-]` [HI-84, S-trans-trans-Farnesyl-mercaptomethyl diazomethyl ketone] is 4.22; for `CC(=O)N[C@@H](CSC/C=C(\C)CCC=C(C)C)C(=O)C=[N+]=[N-]` [HI-122, N-Ac-S-trans-geranyl-Cys diazomethyl ketone] it is below 4.00; for `CC(=O)N[C@@H](CSCC=C(C)C)C(=O)C=[N+]=[N-]` [HI-123, N-Ac-S-(3-methyl-2-butenyl)-Cys diazomethyl ketone] it is below 4.00.
On the same count and under the same terms, the figure for `CC(C)=CCC/C(C)=C/CC/C(C)=C/CSC[C@H](NC(=O)OC(C)(C)C)C(=O)CCl` [HI-124, N-Boc-S-farnesyl-Cys chloromethyl ketone] is 5.11.
The same measure, in the same setting: the figure for `CC(C)=CCC/C(C)=C/CC/C(C)=C/CSCCC(=O)CCl` [HI-125, S-trans-trans-Farnesyl-2-mercaptoethyl chloromethyl ketone] is 4.45.
`CC(C)=CCC/C(C)=C/CC/C(C)=C/CSCC(=O)CCl` [HI-126, S-trans-trans-Farnesyl-mercaptomethyl chloromethyl ketone] showed a pIC50 below 4.00.
On the same count and under the same terms, the figure for `CCCCCCCCCCCCSC[C@@H](C=O)NC(C)=O` [HI-274, N-Ac-S-dodecyl-Cys-H] is 4.88.
